Measured values reported in US20170246241A1, “Methods for the Selective Treatment of Tumors by Calcium-Mediated Induction of Apoptosis” (priority 2003, published 2017).
Entries after “also recorded” stand apart in the source; their conditions may differ.

How the values were obtained:
MEL-STR cells [1] = experiment: Annexin V-FITC apoptosis detection by flow cytometry (apoptotic+dead cells); type: cell-based, human; details: for fold more potent at inducing apoptosis in STR compared to STVP cells: 5 hour exposure (FIGS. 13, 14); for greater sensitivity / potency advantage, malignant versus non-malignant cells, induction of apoptosis: 5 hrs exposure (FIG. 3, FIG. 4)
Experimental: FIG. 2. […] Malignant (MEL-STR) and non-malignant (MEL-STVP) cells used in these experiments were derived originally from normal human foreskin melanocytes obtained from the Weisberg lab. These original surgical samples were genetically modified to grow continuously in vitro and are non-tumor-forming in a nude mouse model. These same cells were genetically modified further to generate the tumor-forming cell line and were propagated.
Apoptotic+dead cells were assayed in this experiment and those that follow below on a Becton-Dickenson flow cytometer using an Annexin V-FITC Apoptosis Detection Kit as described by the manufacturer.
Drug exposure time was 5 hrs. Viable and live cells were measured by FACS and by Coulter counting, respectively. […] Panels A & B: solid circles and lines, STR cells; open circles and broken lines, STVP cells; Panel B, inverse logit/log plot of the data from Panel A. Solid gray circles in Panel B (extrapolated minimum values on abscissa) were used to plot the maximum values shown in Panel A.

MEL-STVP cells = experiment: as above; type: cell-based, human
Description: FIG. 2. […] Malignant (MEL-STR) and non-malignant (MEL-STVP) cells used in these experiments were derived originally from normal human foreskin melanocytes obtained from the Weisberg lab. These original surgical samples were genetically modified to grow continuously in vitro and are non-tumor-forming in a nude mouse model. These same cells were genetically modified further to generate the tumor-forming cell line and were propagated. Thus, this represents an ideal pair of highly similar cells by which drug specificity between normal and malignant cells can be assessed.
Transformed MEL-STR cells were incubated over a period of 24 hrs in the presence of a previously determined ineffective concentration (10 μm) of the CAM antagonist W-7 or the drug vehicle DMSO (1%) as controls and a concentration of 60 μm W-7 as illustrated. Apoptotic+dead cells were assayed in this experiment and those that follow below on a Becton-Dickenson flow cytometer using an Annexin V-FITC Apoptosis Detection Kit as described by the manufacturer.
Drug exposure time was 5 hrs. Viable and live cells were measured by FACS and by Coulter counting, respectively. Dose-dependent decreases in viable cells were inversely proportional to the number of Annexin+Propidium Iodide positive staining cells (data not shown) in these and the following experiments. […]

STVP cells = experiment: Cell density / growth inhibition by Coulter counting; type: cell-based, human; details: PP2B-AIP alone, wide concentration range, 24 hours
Experimental: Closed circles, solid lines, PP2B-AIP only; open circles, dashed lines, PP2B+C6C (15 uM). Cell density was quantified by Coulter counting which measures only cells with Panel A, STR cells; Panel B, STVP cells. Closed circles, solid lines, PP2B-AIP only; open circles, dashed lines, PP2B+C6C (15 uM). Cell density was quantified by Coulter counting which measures only cells with ionically intact plasma membranes (presumed live cells). Drug exposure time was 24 hours. Cell density values are expressed as a percentage of maximum for no drug or C6C only controls. Solid black lines in Panels A & B and dashed line in Panel B represent the average of all values across the PP2B-AIP concentration range. The ability of PKC agonists on apoptosis induction is potentiated by antagonists of Calmodulin-dependent protein phosphatase (a.k.a. Calcineurin or PP2B) and these effects occur at lower drug concentrations in transformed cells than in untransformed cells. […]

STR cells = details: PP2B-AIP alone, wide concentration range, 24 hours
Experimental: Panel B, cell density measured by Coulter counting; Panel C, morphological changes measured by changes in forward light scatter as measured by FACS; Panel D, percentage of spherical cells was determined on live cell populations by counting approximately 500 cells in a representative field using an inverted phase contrast microscope.
Closed circles, solid lines, PP2B-AIP only; open circles, dashed lines, PP2B+C6C (15 uM). Cell density was quantified by Coulter counting which measures only cells with Panel A, STR cells; Panel B, STVP cells. Closed circles, solid lines, PP2B-AIP only; open circles, dashed lines, PP2B+C6C (15 uM). Cell density was quantified by Coulter counting which measures only cells with ionically intact plasma membranes (presumed live cells). Drug exposure time was 24 hours. Cell density values are expressed as a percentage of maximum for no drug or C6C only controls. Solid black lines in Panels A & B and dashed line in Panel B represent the average of all values across the PP2B-AIP concentration range ionically intact plasma membranes (presumed live cells). Drug exposure time was 24 hours. Cell density values are expressed as a percentage of maximum for no drug or C6C only controls. Solid black lines in Panels A & B and dashed line in Panel B represent the average of all values across the PP2B-AIP concentration range.

certain cancers = details: in vivo; cited from earlier work
MEL-STR cells [2] = experiment: Cell morphology (FACS light scatter, microscopic examination); type: cell-based, human
Description: Calmodulin is known to be required for traverse of late G1, G2, and specific periods during mitosis and coincides with periods of elevated […] levels.
The involvement of a form of PKC in the enzyme tetrad that is involved in Ca^2+-dependent, cell cycle phase transitions is given in FIG. 4. […] Four different means for assaying the effect of these two chemicals are shown.

MEL-STR cells [3] = experiment: Annexin V-FITC apoptosis detection by flow cytometry (apoptotic+dead cells); type: cell-based, human; details: 60 μm W-7, time course over 24 hrs
[4] = PP2B-AIP alone, over the concentration range tested

## Ac-RRRRRRRRRRRGGGRMAPPRRDAMPSDA-NH2 [PP2B-AIP]
MEL-STR cells [1]; [4]
  induction of apoptosis, drug alone: no visible induction of apoptosis
MEL-STR cells [1]; PP2B-AIP with C6C, 5 hr. exposure
  maximum of cells killed: ≤ 50%
MEL-STR cells [1]; combined with C6C
  potentiation of apoptosis in combination with C6C: potentiation is seen only in the transformed MEL-STR cell line
MEL-STVP cells; [4]
  induction of apoptosis, drug alone: no visible induction of apoptosis
MEL-STVP cells; combined with C6C
  potentiation of apoptosis in combination with C6C: not in untransformed MEL-STVP cells
STVP cells
  effect on growth, drug alone: no discernible effect
STR cells
  effect on growth, drug alone: no discernible effect

## Oc1ccc(Nc2nc(-c3ccc(Cl)cc3)cs2)cc1 [SKi, 4-[[4-(4-Chlorophenyl)-1,3-thiazol-2-yl]amino]phenol]
MEL-STR cells [1]; SKi combined with W-7
  potentiation of induction of apoptosis in combination with W-7: synergy

## C=C1/C(=C\C=C2/CCC[C@]3(C)[C@@H]([C@H](C)CCCC(C)(C)O)CC[C@@H]23)C[C@@H](O)C[C@@H]1O [Calcitriol]
Certain cancers
  reduction of the incidence of certain cancers: 17-20%

## CCCCCCCCCCCCCC(=O)O[C@@H]1[C@@H](C)[C@@]2(O)[C@@H](C=C(CO)C[C@]3(O)C(=O)C(C)=C[C@@H]23)[C@@H]2C(C)(C)[C@]12OC(C)=O [PMA, Phorbol-12-Myristate-13-Acetate]
MEL-STR cells [1]; PMA combined with submaximal W-7
  potentiation of induction of apoptosis in combination with W-7 (Annexin assay): shows potentiation; also recorded: synergy
MEL-STR cells [2]; PMA combined with W-7, light scatter by FACS and microscopic examination
  potentiation of cell shape change in combination with W-7: Potentiation is also confirmed; also recorded: synergistic drug effects

## CCCCCCCCCCCCC/C=C/[C@@H](O)[C@H](CO)NC(=O)CCCCC [C6C, N-Hexanoyl-D-erythro-Sphingosine]
MEL-STR cells [1]
  fold more potent at inducing apoptosis in STR compared to STVP cells: ca. 6 fold
MEL-STR cells [1]; C6C combined with W-7, 5 hr exposure
  potentiation of induction of apoptosis in combination with W-7: potentiated
MEL-STR cells [1]; MEL-STR vs MEL-STVP
  greater sensitivity / potency advantage, malignant versus non-malignant cells, induction of apoptosis: ~10 fold

## Cl.NCCCCCCNS(=O)(=O)c1cccc2c(Cl)cccc12 [W-7, N-(6-aminohexyl)-5-chloro-1-naphthalenesulfonamide hydrochloride]
MEL-STR cells [1]; 10 μm, previously determined
  induction of apoptosis at 10 μm: ineffective
MEL-STR cells [1]
  fold more potent at inducing apoptosis in STR compared to STVP cells: ca. 5 fold
MEL-STR cells [1]; MEL-STR vs MEL-STVP, 5 hr. exposure, dose response (FIG. 3)
  sensitivity to induction of apoptosis, malignant versus non-malignant cells: more than 10 times
MEL-STR cells [1]; MEL-STR vs MEL-STVP
  greater sensitivity / potency advantage, malignant versus non-malignant cells, induction of apoptosis: 10 fold
MEL-STR cells [2]; 60 μm W-7, microscopically or by FACS light scatter
  time at which morphological rounding of cells can be observed: 1 hr
MEL-STR cells [3]
  population scoring positively for apoptosis: > 90%
  time at which induction of apoptosis can be seen: 3 h
